Measured values from patent US12544395B2, “Combination compositions comprising a beta-lactamase inhibitor and uses thereof” (priority 2018, dated 2026).

Legend:
Assay type in all cases: cell-based
[1] = test system: E. coli Si-FDL-GES; test: microbe, parasite or virus in culture; details: Escherichia coli, read-out: MIC of cefixime (CFM)
[2] = test system: E. coli SI-LP377; test: microbe, parasite or virus in culture; details: Escherichia coli, SILP377, read-out: MIC of cefixime (CFM)
[3] = test system: K. pneumoniae KI (KCl); test: Broth microdilution MIC (strain enzymes: TEM-10); details: Klebsiella pneumoniae; alone; read-out: MIC of cefixime (CFM)
[4] = test system: E. coli SI-NO36; test: Broth microdilution MIC (strain enzymes: SHV-11, TEM-1); details: Escherichia coli, SINO36; alone; read-out: MIC of cefixime (CFM)
[5] = test system: K. pneumoniae ESBL 7 #1; test: Broth microdilution MIC (strain enzymes: SHV-12, TEM-1); details: Klebsiella pneumoniae; alone; read-out: MIC of cefixime (CFM)
[6] = test system: panel of ESBL-producing Enterobacteriaceae (40 strains); test: Broth microdilution MIC50/MIC90 summary over the panel
[7] = test system: K. pneumoniae 3151; test: Broth microdilution MIC (strain enzymes: SHV-12, TEM-1); details: Klebsiella pneumoniae, 3151; alone; read-out: MIC of cefixime (CFM)
[8] = test system: K. pneumoniae KP 8; test: Broth microdilution MIC (strain enzymes: TEM-10, TEM-1, CTX-M15); details: Klebsiella pneumoniae, KP8; alone; read-out: MIC of cefixime (CFM)
[9] = test system: E. coli 3327; test: Broth microdilution MIC (strain enzymes: TEM-1, SHV-12); details: Escherichia coli, 3327; alone; read-out: MIC of cefixime (CFM)
[10] = test system: K. oxytoca 169219; test: Broth microdilution MIC (strain enzymes: TEM-1, CTXM-15); details: Klebsiella oxytoca, 169219; alone; read-out: MIC of cefixime (CFM)
[11] = test system: E. coli 2806; test: Broth microdilution MIC (strain enzymes: SHV-12, TEM-1); details: Escherichia coli, 2806; alone; read-out: MIC of cefixime (CFM)
[12] = test system: E. coli 1924; test: Broth microdilution MIC (strain enzymes: TEM-12); details: Escherichia coli, 1924; alone; read-out: MIC of cefixime (CFM)
[13] = test system: K. pneumoniae BAA 1705; test: Broth microdilution MIC (strain KPC-producing); details: Klebsiella pneumoniae, BAA1705; alone; read-out: MIC of cefixime (CFM)
[14] = test system: K. pneumoniae SI-KP NO30; test: Broth microdilution MIC (strain enzymes: TEM-26b, SHV-60, SHV-26); details: Klebsiella pneumoniae, SIKPNO30; alone; read-out: MIC of cefixime (CFM)
[15] = test system: E. coli 2150; test: Broth microdilution MIC (strain enzymes: SHV-3, TEM-1); details: Escherichia coli, 2150; alone; read-out: MIC of cefixime (CFM)
[16] = test system: E. coli 3174; test: Broth microdilution MIC (strain enzymes: TEM-1, CTXM-15); details: Escherichia coli, 3174; alone; read-out: MIC of cefixime (CFM)
[17] = test system: E. coli ESBL 5; test: Broth microdilution MIC (strain enzymes: CTX-M15, TEM-1); details: Escherichia coli, ESBL5; alone; read-out: MIC of cefixime (CFM)
[18] = test system: E. coli BAS 1; test: Broth microdilution MIC (strain enzymes: none detected); details: Escherichia coli, BAS1; alone; read-out: MIC of cefixime (CFM)
[19] = test system: E. coli ESBL 2; test: Broth microdilution MIC (strain enzymes: TEM-1); details: Escherichia coli, ESBL2; alone; read-out: MIC of cefixime (CFM)
[20] = test system: K. pneumoniae 329633; test: Broth microdilution MIC (strain enzymes: SHV-5, TEM-1); details: Klebsiella pneumoniae, 329633; alone; read-out: MIC of cefixime (CFM)
[21] = test system: E. coli SI-M004; test: Broth microdilution MIC (strain enzymes: SHV-2, GES-12); details: Escherichia coli, SIM004; alone; read-out: MIC of cefixime (CFM)
[22] = test system: K. pneumoniae 153239; test: Broth microdilution MIC (strain enzymes: SHV-11, TEM-1); details: Klebsiella pneumoniae, 153239; alone; read-out: MIC of cefixime (CFM)
[23] = test system: K. pneumoniae 11/23 LF#2; test: microbe, parasite or virus in culture; details: Klebsiella pneumoniae, read-out: MIC of cefixime (CFM)
[24] = test system: E. coli 25922; test: Broth microdilution MIC (strain enzymes: None detected); details: Escherichia coli, 25922; alone; read-out: MIC of cefixime (CFM)
[25] = test system: K. pneumoniae ESBL 8 #2; test: Broth microdilution MIC (strain enzymes: SHV-12, TEM-1); details: Klebsiella pneumoniae; alone; read-out: MIC of cefixime (CFM)
[26] = test system: K. pneumoniae KP 3; test: Broth microdilution MIC (strain enzymes: SHV-1, TEM-1); details: Klebsiella pneumoniae, KP3; alone; read-out: MIC of cefixime (CFM)
[27] = test system: K. pneumoniae 115468; test: Broth microdilution MIC (strain enzymes: TEM-1); details: Klebsiella pneumoniae, 115468; alone; read-out: MIC of cefixime (CFM)
[28] = test system: K. pneumoniae 319478; test: Broth microdilution MIC (strain enzymes: SHV-12, CTX-M3 and TEM-1); details: Klebsiella pneumoniae, 319478; alone; read-out: MIC of cefixime (CFM)
[29] = test system: K. pneumoniae KPN 508; test: Broth microdilution MIC (strain enzymes: SHV-7, TEM-1); details: Klebsiella pneumoniae, KPN508; alone; read-out: MIC of cefixime (CFM)
[30] = test system: E. coli SI-PBLII; test: Broth microdilution MIC (strain enzymes: CTX-M2, TEM-1); details: Escherichia coli; alone; read-out: MIC of cefixime (CFM)
[31] = test system: K. pneumoniae ESBL 10; test: Broth microdilution MIC (strain enzymes: SHV-12, TEM-1); details: Klebsiella pneumoniae, ESBL10; alone; read-out: MIC of cefixime (CFM)
[32] = test system: K. pneumoniae ESBL 8 #1; test: Broth microdilution MIC (strain enzymes: TEM-1, SHV-12); details: Klebsiella pneumoniae; alone; read-out: MIC of cefixime (CFM)
[33] = test system: K. pneumoniae ESBL 7 #2; test: Broth microdilution MIC (strain enzymes: SHV-12, CTX-M15, TEM-1); details: Klebsiella pneumoniae; alone; read-out: MIC of cefixime (CFM)
[34] = test system: E. coli ESBL 4; test: Broth microdilution MIC (strain enzymes: CTX-M15, TEM-1); details: Escherichia coli, ESBL4; alone; read-out: MIC of cefixime (CFM)
[35] = test system: E. coli SI-V502; test: Broth microdilution MIC (strain enzymes: TEM-29, CTX-M15); details: Escherichia coli, SIV502; alone; read-out: MIC of cefixime (CFM)
[36] = test system: K. pneumoniae 170375; test: Broth microdilution MIC (strain enzymes: SHV-12, CTX-M15 and TEM-1); details: Klebsiella pneumoniae, 170375; alone; read-out: MIC of cefixime (CFM)
[37] = test system: E. coli SI-AIRT-4; test: Broth microdilution MIC (strain enzymes: TEM-1); details: Escherichia coli, SIAIRT4; alone; read-out: MIC of cefixime (CFM)
[38] = test system: K. pneumoniae KP 4; test: Broth microdilution MIC (strain enzymes: SHV-2a, SHV-5, TEM-1); details: Klebsiella pneumoniae, KP4; alone; read-out: MIC of cefixime (CFM)
[39] = test system: K. pneumoniae 304487; test: Broth microdilution MIC (strain enzymes: SHV-12,TEM-1); details: Klebsiella pneumoniae, 304487; alone; read-out: MIC of cefixime (CFM)
[40] = test system: K. oxytoca 176877; test: Broth microdilution MIC (strain enzymes: SHV-105); details: Klebsiella oxytoca, 176877; alone; read-out: MIC of cefixime (CFM)
[41] = test system: K. oxytoca 496 #2; test: Broth microdilution MIC (strain enzymes: SHV-105, TEM-1); details: Klebsiella oxytoca; alone; read-out: MIC of cefixime (CFM)

With C=CC1=C(C(=O)O)N2C(=O)[C@@H](NC(=O)/C(=N\OCC(=O)O)c3csc(N)n3)[C@H]2SC1 [Cefixime, cefixime, reference compound] the MIC [1] was 2 µg/mL, the MIC [2] was > 32 µg/mL and the MIC [3] was 32 µg/mL. For the same molecule, the MIC [4] was 1 µg/mL, the MIC [5] was > 32 µg/mL and the MIC50 ([6]; read-out: Cefixime MIC50) was > 32 µg/mL. For the same molecule, the MIC90 ([6]; read-out: Cefixime MIC90) was > 32 µg/mL, the MIC [7] was > 32 µg/mL and the MIC [8] was > 32 µg/mL. The MIC [9] was > 32 µg/mL, the MIC [10] was > 32 µg/mL and the MIC [11] was 32 µg/mL. The MIC [12] was 2 µg/mL, the MIC [13] was > 32 µg/mL and the MIC [14] was > 32 µg/mL. For the same molecule, the MIC [15] was > 32 µg/mL, the MIC [16] was 0.5 µg/mL and the MIC [17] was > 32 µg/mL. For the same molecule, the MIC [18] was > 32 µg/mL, the MIC [19] was > 32 µg/mL and the MIC [20] was > 32 µg/mL. The MIC [21] was > 32 µg/mL, the MIC [22] was 0.5 µg/mL and the MIC [23] was > 32 µg/mL. The MIC [24] was 1 µg/mL, the MIC [25] was > 32 µg/mL and the MIC [26] was > 32 µg/mL. The MIC [27] was > 32 µg/mL, the MIC [28] was > 32 µg/mL and the MIC [29] was > 32 µg/mL. For the same molecule, the MIC [30] was 1 µg/mL, the MIC [31] was > 32 µg/mL and the MIC [32] was > 32 µg/mL. For the same molecule, the MIC [33] was > 32 µg/mL, the MIC [34] was > 32 µg/mL and the MIC [35] was 2 µg/mL. For the same molecule, the MIC [36] was > 32 µg/mL, the MIC [37] was 0.5 µg/mL and the MIC [38] was > 32 µg/mL. For the same molecule, the MIC [39] was > 32 µg/mL, the MIC [40] was > 32 µg/mL and the MIC [41] was 32 µg/mL.
